Laboratory results published in US9079913B2, “Spiro-oxindole MDM2 antagonists” (The Regents of the University of Michigan, priority 2009, dated 2015).
Like-named read-outs stand apart in the source and are kept apart here.

Legend:
[1] = test system: cancer cell lines with wild-type p53 / mutated or deleted p53 (ATCC); assay: Cell growth assay (WST-8), other cancer cell lines; format: cell-based
[2] = In vitro microsomal stability, rat; format: in vitro ADME
[3] = test system: Isogenic HCT-116 colon cancer cell lines; assay: cells; format: cell-based;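 further: cells grown in 96-well plates in McCoy's 5A medium with 10% FBS, exposed to compound for 4 days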
Experimental: Cells were seeded in 96-well flat bottom cell culture plates at a density of 2−3×10^3 cells/well with compounds and incubated for 4 days.

[4] = Homo sapiens, LNCaP, read-out: LNCAP (p53 wild-type) IC50
[5] = Homo sapiens, SJSA-1, read-out: SJSA-1 (p53 wild-type) IC50
[6] = Homo sapiens, HCT-116, read-out: HCT-116 (p53-/-) IC50, Table 19A, HCT-116 p53-/-, cell growth
[7] = Homo sapiens, HCT-116, read-out: HCT-116 (p53 wild-type) IC50, Table 19A, HCT-116 p53 wild-type, cell growth
[8] = Homo sapiens, LNCaP, Table 19A, LNCAP cells, p53 wild-type, cell growth, read-out: LNCAP (p53 wild-type) IC50
[9] = Homo sapiens, PC-3, Table 19A, PC-3 cells, deleted p53, cell growth, read-out: PC-3 (deleted p53) IC50
[10] = Homo sapiens, SJSA-1, Table 19A, SJSA-1 cells, p53 wild-type, cell growth, read-out: SJSA-1 (p53 wild-type) IC50
[11] = read-out: SJSA-1 (p53 wild-type) IC50
[12] = Homo sapiens, PC-3, read-out: PC-3 (deleted p53) IC50

With CC(C)(C)C[C@H]1N[C@@H](C(=O)N[C@H]2C[C@](C)(O)C2)[C@H](c2cccc(Cl)c2F)[C@@]12C(=O)Nc1cc(Cl)ccc12 [MI-519-65] the “cell growth inhibition (in words)” value [1] was “effectively inhibit cancer cell growth”, the IC50 [1, 4] was under 3000 nM and the IC50 [1, 5] was under 3000 nM.
For CC(C)(C)CC1NC(C(=O)NCCN2CCCC2)C(c2cccc(Cl)c2F)C12C(=O)Nc1cc(Cl)ccc12 (stereo not drawn) [MI-120], the “% of compound remaining when incubated in rat liver microsomes” value (from here on “% of compound remaining when incubated”) ([2]; Table 16, 0 min) was 100%, the “% of compound remaining when incubated” value ([2]; Table 16, 4 min) was 95.1% and the “% of compound remaining when incubated” value ([2]; Table 16, 6 min) was 88.1%. For the same compound, the “% of compound remaining when incubated” value ([2]; Table 16, 10 min) was 84.7%, the “% of compound remaining when incubated” value ([2]; Table 16, 15 min) was 82.1% and the “% of compound remaining when incubated” value ([2]; Table 16, 30 min) was 79%.
In the case of CC(C)(C)C[C@H]1N[C@@H](C(=O)NCCCNS(C)(=O)=O)[C@H](c2cccc(Cl)c2F)[C@@]12C(=O)Nc1cc(Cl)c(F)cc12 [MI-768], the IC50 [3, 6] is reported as 9800 ± 400 nM, the IC50 [3, 7] is reported as 500 ± 200 nM and the IC50 [1, 8] is reported as 700 ± 200 nM. For the same compound, the IC50 [1, 9] was 7300 ± 800 nM and the IC50 [1, 10] was 800 ± 100 nM.
For CC(C)(C)C[C@H]1N[C@@H](C(=O)NC2CC(OC(=O)CN)C2)[C@H](c2cccc(Cl)c2F)[C@@]12C(=O)Nc1cc(Cl)ccc12 (stereo partly drawn) [MI-519-69], the IC50 [3, 6] was over 10000 nM, the IC50 [3, 7] was under 5000 nM and the IC50 [1, 8] was under 5000 nM. The IC50 [1, 9] was over 10000 nM and the IC50 [1, 10] was under 5000 nM.
With CC(C)(C)C[C@H]1N[C@@H](C(=O)NCCN2CCCC2)[C@H](c2cccc(Cl)c2F)[C@@]12C(=O)Nc1cc(Cl)c(F)cc12 [MI-763] the “% of compound remaining when incubated” value ([2]; Table 17, 0 min) was 100%, the “% of compound remaining when incubated” value ([2]; Table 17, 4 min) was 96.8% and the “% of compound remaining when incubated” value ([2]; Table 17, 6 min) was 97.3%. The “% of compound remaining when incubated” value ([2]; Table 17, 10 min) was 85.6%, the “% of compound remaining when incubated” value ([2]; Table 17, 15 min) was 72.1% and the “% of compound remaining when incubated” value ([2]; Table 17, 30 min) was 61.5%. The “microsomal stability (in words)” value ([2]; rat liver microsomes) was “improved microsomal stability over MI-219”.
For CC(C)(C)C[C@H]1N[C@@H](C(=O)NC2CCC(O)CC2)[C@H](c2cccc(Cl)c2F)[C@@]12C(=O)Nc1cc(F)c(F)cc12 (stereo partly drawn) [MI-7104], the IC50 ([1]; read-out: LNCAP (p53 wild-type) IC50) was under 3000 nM, the IC50 ([1]; read-out: PC-3 (deleted p53) IC50) was over 10000 nM and the IC50 [1, 11] was under 3000 nM.
Compound CC(C)(C)C[C@@H]1N[C@@H](C(=O)NC2CCC(O)CC2)[C@H](c2cccc(Cl)c2F)[C@]12C(=O)Nc1cc(Cl)ccc12 (stereo partly drawn) [MI-77301] has an IC50 [3, 7] of 100 nM, an IC50 [1, 4] of 100 nM and an IC50 [1, 12] of 13000 nM. For the same compound, the IC50 [1, 5] was 800 nM.
CC(C)(C)C[C@H]1N[C@@H](C(=O)NC2CCC(O)CC2)[C@H](c2cccc(Cl)c2F)[C@@]12C(=O)Nc1cc(F)c(F)cc12 (stereo partly drawn) [MI-786] showed an IC50 [1, 11] of 800 nM.
With CC(C)(C)C[C@H]1N[C@@H](C(=O)NCCCN2CCN(C3CC3)CC2)[C@H](c2cccc(Cl)c2F)[C@@]12C(=O)Nc1cc(Cl)ccc12 [MI-519-48] the “% of compound remaining when incubated” value ([2]; Table 17, 0 min) was 100%, the “% of compound remaining when incubated” value ([2]; Table 17, 4 min) was 79.8% and the “% of compound remaining when incubated” value ([2]; Table 17, 6 min) was 64.8%. The “% of compound remaining when incubated” value ([2]; Table 17, 10 min) was 48.5%, the “% of compound remaining when incubated” value ([2]; Table 17, 15 min) was 45.2% and the “% of compound remaining when incubated” value ([2]; Table 17, 30 min) was 43.7%.
Compound CC(C)(C)C[C@@H]1N[C@@H](C(=O)N[C@H]2C[C@@](C)(O)C2)[C@H](c2cccc(Cl)c2F)[C@]12C(=O)Nc1cc(Cl)ccc12 [MI-519-6401] has an IC50 ([3]; Homo sapiens, HCT-116, read-out: HCT-116 (p53 wild-type) IC50) of 100 nM, an IC50 [1, 4] of 300 nM and an IC50 [1, 12] of 10500 nM. The IC50 [1, 5] was 400 nM.
CNCC(=O)N1CCN(C(=O)[C@@H]2N[C@H](CC(C)(C)C)[C@]3(C(=O)Nc4cc(Cl)c(F)cc43)[C@H]2c2cccc(Cl)c2)CC1 [MI-747] showed an IC50 [3, 6] of 3900 nM, an IC50 [3, 7] of 1300 nM and an IC50 [1, 8] of 1300 nM. For the same compound, the IC50 [1, 9] was 3700 nM.
Compound CC(C)(C)C[C@H]1N[C@@H](C(=O)NCC[C@H]2CC[C@@H](O)C2)[C@H](c2cccc(Cl)c2F)[C@@]12C(=O)Nc1cc(Cl)ccc12 [MI-753] has an IC50 ([3]; Homo sapiens, HCT-116, read-out: Inhibition of cell growth IC50, HCT116 p53 WT, Table 19B, HCT116 p53 WT) of 2900 ± 100 nM, an IC50 ([3]; read-out: Inhibition of cell growth IC50, HCT116 p53 KO, Table 19B, HCT116 p53 KO) of 21800 ± 4900 nM and an IC50 ([1]; Homo sapiens, LNCaP, Table 19B, LNCaP cells, read-out: Inhibition of cell growth IC50, LNCaP) of 3200 ± 300 nM. For the same compound, the IC50 ([1]; Table 19B, PC3 cells, read-out: Inhibition of cell growth IC50, PC3) was 24700 ± 2700 nM.
Work on CC(C)(C)C[C@H]1N[C@@H](C(=O)NC2CC(=O)C2)[C@H](c2cccc(Cl)c2F)[C@@]12C(=O)Nc1cc(Cl)ccc12 [MI-519-70] yielded an IC50 [3, 6] of over 10000 nM, an IC50 [3, 7] of under 5000 nM and an IC50 [1, 8] of under 5000 nM. It also gave an IC50 [1, 9] of over 10000 nM and an IC50 [1, 10] of under 5000 nM.
